# Measurements from patent publication US20200270309A1, “MALEIMIDE GROUP-MODIFIED ANGIOGENESIS INHIBITOR HM-1 AND USE THEREOF” (NANJING ANJI BIOLOGICAL TECHNOLOGY CO., LTD, priority 2017, published 2020).
# Marks after values point to notes of the source that are not given here. Peptide text beside a SMILES is read from it. * marks the point of attachment. X68 = O=C1C=CC(=O)N1c1ccccc1CCCCCCCCCCCC(=O)*; X72 = O=C1C=CC(=O)N1c1ccccc1CCCCCCCCCCC(=O)*; X60 = O=C1C=CC(=O)N1c1ccccc1CCCCCCCCCC(=O)*
# How the values were obtained:
# [1] = test system: xylene-induced ear swelling; test: Xylene-induced mouse ear swelling; format: in vivo; settings: Kunming mice, injected once a day for 5 days; for Swelling degree / Swelling degree (mg): right minus left ear piece weight 2 h after xylene; for Inhibition rate (%): xylene-induced ear swelling
# How it was run: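 Ear pieces punched and weighed 2 h after xylene (0.05 mL, right ear only; left ear as normal) gave swelling degree (right − left weight) and swelling rate (degree/left weight ×100%). Kunming mice received injections daily for 5 consecutive days, xylene applied 1 h after final dose.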
# [2] = test system: collagen-induced arthritis; test: Mouse collagen-induced arthritis (CIA) animal model; format: in vivo; settings: DBA/1 mice CIA model, dose 4.0 mg/kg, subcutaneous from day 30, n=10; for Clinical score: highest score 16
# [3] = test system: retinal neovascularization (OIR model); test: Retinal vessels in OIR mice; format: in vivo, C57/B16 mice; settings: for Area of neovascular plexus (mm^2): dose 0.05 μM in the vitreous chamber on day 13, retinal vessels evaluated on day 17; for Inhibition rate (%): dose 0.05 μM in the vitreous chamber on day 13, retinal vessels evaluated on day 17, vs negative control
# Description: Establishment of an OIR model: Young mice and their mothers were exposed in a 75% hyperoxic environment from day 7 to day 12 after the birth of C57/B16 mice, which caused capillaries in their central retina to disappear rapidly. The mice were returned to the indoor air on day 12, retinal vessels exposed to hyperoxia quickly disappeared, causing extensive abnormal neoangiogenesis, and the central part of the retina remained largely avascular for a long time. After the blood vessels disappeared completely, the mice were injected with normal saline (a negative group), X1-X12, X13-X44, X45-X90 in the vitreous chamber on day 13 respectively, and retinal vessels were evaluated on day 17 ([…] of Texas red labeled tomato agglutinin was injected into the left ventricle to mark unclosed vessels and circulated for 5 min).
# [4] = test system: HUVECs; test: Transwell migration inhibition on HUVECs; format: cell-based, human; settings: for Inhibition rate (%): HUVEC migration vs blank control; for Cell migration number (Mean ± SD): HUVECs, transwell, 24 h
# [5] = Half-lives and pharmacokinetic parameters of polypeptides vs HM-1; settings: in vivo; for half-life: T1/2β (half-life)
# [6] = test system: human retinal capillary endothelial cells (HRCECs); test: MTT proliferation inhibition on HRCECs; format: cell-based; settings: 48 h; for A570 nm-A630 nm: mean±SD
# How it was run: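 HRCECs seeded at 3.0×10^4 cells/mL, adhered overnight, then exposed to polypeptide for 48 h at 37 °C, 5% CO2. MTT added 4 h, formazan dissolved in DMSO, absorbance 570/630 nm; PIR (%) = 1 − treated/negative control, mean±SD of three independent runs.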
# [7] = test system: corneal neovascularization; test: Corneal neovascularization induced by alkali burn in BALB/c mice; format: in vivo; parameters: Inhibition rate (corneal neovascularization): concentration or dose not given beside the values; settings: day 14 after alkali burn, vitreous injection once a day for 1 week
# [8] = test system: choroidal neovascularization; test: Choroidal neovascularization in rats (laser photocoagulation, FFA); format: in vivo; settings: BN rats
# Procedure: 6-8 weeks male BN rats were fully anesthetized by intraperitoneal injection of 846 compound anesthetic with a concentration of 0.5 mL/kg. Compound tropicamide eye drops were used once 5 min before laser photocoagulation to fully dilate the pupils of both eyes. The animals were fixed and subjected to krypton laser photocoagulation equidistantly around an optic disc with the aid of a −53.00D corneal contact lens at a distance of 2PD from the optic disc. A total of 8 photocoagulation spots were obtained. The laser wavelength was 647.1 nm, the power was 350 mW, and the diameter and time of the photocoagulation spots were 50 μm and 0.05 s respectively. Fundus photography was performed immediately after photocoagulation. FFA, histopathology and transmission electron microscopy were performed on the days 3, 7, 14, 21 and 28 after photocoagulation respectively.
# Through fundus photography and FFA examination, it was confirmed that the fluorescein leakage of the photocoagulation spot reached its peak on day 21 after photocoagulation. At the same time, histopathological examination was carried out.
# Rats with successful modeling were randomly grouped, with 5 rats in each group. The groups were marked as a negative control group and X1-X90 treatment groups respectively. The rats were injected with normal saline and X1-X90 (the doses of X1-X90 were each 0.05 μM) in the vitreous chamber once a day for 1 week. FFA examination was carried out 3 days, 7 days, 14 days and 28 days after administration.
# [9] = day 3 after administration, total light spot number was 297, 0.05 μM in the vitreous chamber once a day for 1 week
# [10] = day 7 after administration, total light spot number was 186, 0.05 μM in the vitreous chamber once a day for 1 week
# [11] = day 14 after administration, total light spot number was 137, 0.05 μM in the vitreous chamber once a day for 1 week
# [12] = day 28 after administration, total light spot number was 69, 0.05 μM in the vitreous chamber once a day for 1 week
SMILES,Inhibition rate (%) ([1]; dose 2 mg/kg),Swelling degree (mg) ([1]; dose 4 mg/kg),Inhibition rate (%) ([1]; dose 4 mg/kg),Swelling degree (mg) ([1]; dose 8 mg/kg),Inhibition rate (%) ([1]; dose 8 mg/kg),Joint swelling degree (mm) [2] [mm],Left and right paw swelling degree (mm) [2] [mm],Clinical score [2],Area of neovascular plexus (mm^2) [3] [mm^2],Inhibition rate (%) [3],Inhibition rate (%) ([4]; dose 0.05 μM),Inhibition rate (%) ([4]; dose 0.1 μM),Inhibition rate (%) ([4]; dose 0.2 μM),AUC(0-inf) [5] [ng·h/mL],MRT inf [5] [h],clearance [5] [mL/min/kg],half-life [5] [h],Inhibition rate (%) ([6]; dose 0.05 μM) [%*],A570 nm-A630 nm ([6]; dose 0.05 μM),Inhibition rate (%) ([6]; dose 0.1 μM) [%**],further results
C[C@H](NC(=O)CNC(=O)[C@H](CCCNC(=N)N)NC(=O)CCCCCCCCCc1ccccc1N1C(=O)C=CC1=O)C(=O)N[C@@H](CC(=O)O)C(=O)N[C@@H](CCCNC(=N)N)C(=O)N[C@@H](C)C(=O)NCC(=O)NCC(=O)NCC(=O)NCC(=O)N[C@@H](CCCNC(=N)N)C(=O)NCC(=O)N[C@@H](CC(=O)O)C(=O)O [X21] (X60-RGADRAGGGGRGD-OH),13.48,4.97 ± 0.14* mg,20.22,3.15 ± 0.42** mg,49.44,0.81 ± 0.14,0.83 ± 0.16,8.79 ± 1.43,0.118 ± 0.012,44.34%*,48.94,50.61,52.23,34000 ± 8190,60.9 ± 9.41,0.49,42.24 ± 0.28,48.85,0.6761 ± 0.01737,67.15,"Swelling degree ([1]; dose 2 mg/kg): 5.39 ± 0.39 mg; A570 nm-A630 nm ([6]; dose 0.1 μM): 0.4342 ± 0.04189; Inhibition rate (%) ([6]; dose 0.2 μM): 69.16%*; A570 nm-A630 nm ([6]; dose 0.2 μM): 0.4076 ± 0.06848; Inhibition rate (corneal neovascularization) [7]: 45.93%; MVD (corneal microvessel density) [7]: 36.36 ± 3.663; CNV Incidence (%) [8, 9]: 50.84%; Leakage Light spot number [8, 9]: 151; CNV Incidence (%) [8, 10]: 47.85%; Leakage Light spot number [8, 10]: 89; CNV Incidence (%) [8, 11]: 46.72%; Leakage Light spot number [8, 11]: 64; CNV Incidence (%) [8, 12]: 40.58%; Leakage Light spot number [8, 12]: 28"
C[C@H](NC(=O)CNC(=O)[C@H](CCCNC(=N)N)NC(=O)CCCCCCCCCCc1ccccc1N1C(=O)C=CC1=O)C(=O)N[C@@H](CC(=O)O)C(=O)N[C@@H](CCCNC(=N)N)C(=O)N[C@@H](C)C(=O)NCC(=O)NCC(=O)NCC(=O)NCC(=O)N[C@@H](CCCNC(=N)N)C(=O)NCC(=O)N[C@@H](CC(=O)O)C(=O)O [X22] (X72-RGADRAGGGGRGD-OH),24.24,3.67 ± 0.77** mg,41.09,3.42 ± 0.21** mg,45.10,0.75 ± 0.14,0.83 ± 0.13,8.67 ± 1.32,0.082 ± 0.005,61.32%**,48.22,55.21,57.65,28200 ± 7980,50.5 ± 13.6,0.59,35.03 ± 0.27,49.30,0.6701 ± 0.07545,64.15,"Swelling degree (mg) ([1]; dose 2 mg/kg): 4.72 ± 0.29* mg; Cell migration number (Mean ± SD) ([4]; dose 0.05 μM): 555.03 ± 66.81; Cell migration number (Mean ± SD) ([4]; dose 0.1 μM): 480.13 ± 67.49; Cell migration number (Mean ± SD) ([4]; dose 0.2 μM): 453.97 ± 57.23; A570 nm-A630 nm ([6]; dose 0.1 μM): 0.4738 ± 0.00344; Inhibition rate (%) ([6]; dose 0.2 μM): 66.52%*; A570 nm-A630 nm ([6]; dose 0.2 μM): 0.4425 ± 0.04816; Inhibition rate (corneal neovascularization) [7]: 46.70%; MVD (corneal microvessel density) [7]: 35.84 ± 6.594; CNV Incidence (%) [8, 9]: 53.87%; Leakage Light spot number [8, 9]: 160; CNV Incidence (%) [8, 10]: 47.85%; Leakage Light spot number [8, 10]: 89; CNV Incidence (%) [8, 11]: 43.80%; Leakage Light spot number [8, 11]: 60; CNV Incidence (%) [8, 12]: 37.68%; Leakage Light spot number [8, 12]: 26"
C[C@H](NC(=O)CNC(=O)[C@H](CCCNC(=N)N)NC(=O)CCCCCCCCCCCc1ccccc1N1C(=O)C=CC1=O)C(=O)N[C@@H](CC(=O)O)C(=O)N[C@@H](CCCNC(=N)N)C(=O)N[C@@H](C)C(=O)NCC(=O)NCC(=O)NCC(=O)NCC(=O)N[C@@H](CCCNC(=N)N)C(=O)NCC(=O)N[C@@H](CC(=O)O)C(=O)O [X23] (X68-RGADRAGGGGRGD-OH),9.47,3.63 ± 0.51** mg,41.73,3.47 ± 0.06** mg,44.30,0.77 ± 0.17,0.77 ± 0.15,9.15 ± 1.47,0.101 ± 0.002,52.36%**,48.22,51.50,52.06,25600 ± 8510,45.8 ± 10.6,0.652,31.72 ± 0.25,45.59,0.7191 ± 0.07483,46.74,"Swelling degree ([1]; dose 2 mg/kg): 5.64 ± 0.84 mg; A570 nm-A630 nm ([6]; dose 0.1 μM): 0.7043 ± 0.07872; Inhibition rate (%) ([6]; dose 0.2 μM): 48.91%*; A570 nm-A630 nm ([6]; dose 0.2 μM): 0.6753 ± 0.00095; Inhibition rate (corneal neovascularization) [7]: 46.95%; MVD (corneal microvessel density) [7]: 35.67 ± 6.861; CNV Incidence (%) [8, 9]: 52.86%; Leakage Light spot number [8, 9]: 157; CNV Incidence (%) [8, 10]: 45.70%; Leakage Light spot number [8, 10]: 85; CNV Incidence (%) [8, 11]: 44.53%; Leakage Light spot number [8, 11]: 61; CNV Incidence (%) [8, 12]: 37.68%; Leakage Light spot number [8, 12]: 26"
